Data set [1] can be described thus: In vitro release of camptothecin (dialysis bag, Korsmeyer-Peppas model). The settings on record: PBS pH 7.4, 37° C., 168 hours, MWCO 2,000 Da. Type of data set: physicochemical. On the procedure:
The in vitro release of camptothecin under different conditions were compared; the conditions were: […] The test duration time was 168 hours, the test temperature was 37° C., and the dialysis bag with molecular weight cut-off (MWCO) of 2,000 Da was used.

A further data set deals with A549 cells. The data set can be described thus: Cytotoxicity test on A549 cells. Type of data set: cell-based. The settings on record: Homo sapiens, 24 hours after drug administration. As to the method:
The amount of the cells in each test well was 100 cells. 24 hours after the drug administration, the cell counts were measured.

The next data set concerns HT-29 cells. The data set can be described thus: Cytotoxicity test on HT-29 cells. The settings on record: Homo sapiens, 24 hours after drug applied. Type of data set: cell-based.

Values after ≈ are worked out from the molar mass of the structure shown.

Consider `CC[C@@]1(O)C(=O)OCc2c1cc1n(c2=O)Cc2cc3ccccc3nc2-1` [Camptothecin], for which the “K (Korsmeyer-Peppas model)” value in data set [1] is 44.25. In addition, the “n (Korsmeyer-Peppas model)” value in data set [1] came out at 0.09985. For the same molecule, the IC50 (usually the point on the concentration scale where inhibition reaches its midpoint) was 40.1 µg/mL (≈ 115 µM) in the data set with A549 cells and 52.3 µg/mL (≈ 150 µM) in the data set on HT-29 cells.
